The values below come from ChEMBL document CHEMBL5584231, “Rational design of a new short anticancer peptide with good potential for cancer treatment” (Eur J Med Chem, 2024).

Residues, ends and D or L forms follow the SMILES beside them.

Data set [1] can be described thus: Cytotoxicity against RG cells (unknown origin) assessed as inhibition of cell growth incubated for 1 hr by MTT assay. In kind it is functional, cell-based.
A further data set has as its system MCF7. Description: Cytotoxicity against human MCF7 cells assessed as inhibition of cell growth incubated for 1 hr by MTT assay. Conditions: MCF7, 1 h. The data set is classed as functional, cell-based.
Another data set has as its system HeLa. Briefly: Cytotoxicity against human HeLa cells assessed as inhibition of cell growth incubated for 1 hr by MTT assay. In kind it is functional, cell-based.
Data set [2] in a line: Cytotoxicity against HK-2 cells assessed as inhibition of cell growth incubated for 1 hr by MTT assay. As to conditions: human. The data set is classed as toxicity, cell-based.
A short description of data set [3]: Therapeutic index, ratio of HC10 for mouse RBC to IC50 for cytotoxicity against human HeLa cells. The data set is classed as toxicity, cell-based. As to conditions: mouse RBC and HeLa cells, read-out: TI.
In the next data set the test system is A549. Description: Cytotoxicity against human A549 cells assessed as inhibition of cell growth incubated for 1 hr by MTT assay. In kind it is functional, cell-based. As to conditions: A549, 1 h.
A short description of data set [4]: Therapeutic index, ratio of HC10 for mouse RBC to IC50 for cytotoxicity against human MCF7 cells. In kind it is toxicity, cell-based. Conditions: mouse RBC and MCF7 cells, read-out: TI.
A short description of data set [5]: Therapeutic index, ratio of HC10 for mouse RBC to IC50 for cytotoxicity against human A549 cells. The data set is classed as toxicity, cell-based. Conditions: mouse RBC and A549 cells, read-out: TI.
The nature of data set [6]: Therapeutic index, ratio of HC10 for mouse RBC to IC50 for cytotoxicity against RG cells (unknown origin). In kind it is toxicity, cell-based. Conditions: mouse RBC and RG cells, read-out: TI.

For the compound `CC(C)C[C@H](NC(=O)[C@H](CC(C)C)NC(=O)[C@H](CCCCN)NC(=O)[C@H](CCCCN)NC(=O)[C@H](CC(C)C)NC(=O)[C@H](CC(C)C)NC(=O)[C@H](CCCCN)NC(=O)[C@H](CCCCN)NC(=O)[C@H](CC(C)C)NC(=O)[C@H](CC(C)C)NC(=O)[C@H](CCCCN)NC(=O)[C@H](CCCCN)NC(=O)[C@H](CC(C)C)NC(=O)[C@@H](N)CCC(=O)O)C(N)=O` (H-ELKKLLKKLLKKLL-NH2), the 50% inhibitory concentration (IC50) in data set [1] was determined as 22.5 µM; in the data set on MCF7 it was 39.9 µM; in the data set on HeLa it was 16.3 µM; with A549, 14.7 µM. Also, the IC50 at 1 h in data set [2] worked out at 50.8 µM. In addition, the selectivity ratio came out at 1.58 in data set [3], 0.647 in data set [4], 1.75 in data set [5] and 1.15 in [6].
For `CC(C)C[C@H](NC(=O)[C@H](CC(C)C)NC(=O)[C@H](CCCCN)NC(=O)[C@H](CCCCN)NC(=O)[C@H](CC(C)C)NC(=O)[C@H](CC(C)C)NC(=O)[C@H](CCCCN)NC(=O)[C@H](CCCCN)NC(=O)[C@H](CC(C)C)NC(=O)[C@H](CC(C)C)NC(=O)[C@H](CCCCN)NC(=O)[C@@H](N)CCCCN)C(=O)N[C@@H](CCCCN)C(N)=O` (H-KKLLKKLLKKLLK-NH2), the IC50 in data set [1] is 93.3 µM; in the data set with MCF7, 108 µM; in the data set with HeLa, 20.8 µM; with A549, 55.4 µM. Also, in data set [2], the IC50 at 1 h turned out to be 63.9 µM. Also, the selectivity ratio in data set [3] was found to be 24.1; in data set [4], 4.61; in [5], 9.03; in data set [6], 5.36.
Turning to `CC(C)C[C@H](NC(=O)[C@H](CC(C)C)NC(=O)[C@H](CCCCN)NC(=O)[C@H](CCCCN)NC(=O)[C@H](CC(C)C)NC(=O)[C@H](CC(C)C)NC(=O)[C@H](CCCCN)NC(=O)[C@H](CCCCN)NC(=O)[C@H](CC(C)C)NC(=O)[C@H](CC(C)C)NC(=O)[C@H](CCCCN)NC(=O)[C@H](CCCCN)NC(=O)[C@H](CC(C)C)NC(=O)[C@H](CC(C)C)NC(=O)[C@H](CCCCN)NC(=O)[C@@H](N)CCCCN)C(=O)N[C@@H](CCCCN)C(N)=O` (H-KKLLKKLLKKLLKKLLK-NH2), the IC50 in [1] is 10.9 µM; with MCF7 it was 9.06 µM; in the data set on HeLa, 4.63 µM; in the data set on A549 it was 7.23 µM. For the same compound, in data set [2], the IC50 at 1 h is 8.47 µM. The selectivity ratio in [3] is 2.62; in data set [4] it was 1.34; in data set [5], 1.67; in data set [6], 1.11.
For the compound `CC(C)C[C@H](NC(=O)[C@H](CCCCN)NC(=O)[C@H](CC(C)C)NC(=O)[C@H](CC(C)C)NC(=O)[C@H](CCCCN)NC(=O)[C@H](CCCCN)NC(=O)[C@H](CC(C)C)NC(=O)[C@H](CC(C)C)NC(=O)[C@H](CCCCN)NC(=O)[C@H](CCCCN)NC(=O)[C@H](CC(C)C)NC(=O)[C@H](CC(C)C)NC(=O)[C@H](CCCCN)NC(=O)[C@H](CCCCN)NC(=O)[C@H](CC(C)C)NC(=O)[C@H](CC(C)C)NC(=O)[C@H](CCCCN)NC(=O)[C@@H](N)CCCCN)C(N)=O` (H-KKLLKKLLKKLLKKLLKL-NH2), the half-inhibitory concentration (IC50) in [1] stood at 9.04 µM; in the data set on MCF7, 5.88 µM; in the data set on HeLa it was 3.45 µM; in the data set with A549, 5.61 µM. The IC50 at 1 h in data set [2] stood at 15.1 µM. Besides, the selectivity ratio is 1.8 in data set [3], 1.05 in data set [4], 1.11 in [5] and 0.686 in data set [6].
Regarding `CC(C)C[C@H](NC(=O)[C@H](CCCCN)NC(=O)[C@H](CC(C)C)NC(=O)[C@H](CC(C)C)NC(=O)[C@H](CCCCN)NC(=O)[C@H](CCCCN)NC(=O)[C@H](CC(C)C)NC(=O)[C@H](CC(C)C)NC(=O)[C@H](CCCCN)NC(=O)[C@H](CCCCN)NC(=O)[C@H](CC(C)C)NC(=O)[C@H](CC(C)C)NC(=O)[C@H](CCCCN)NC(=O)[C@@H](N)CCCCN)C(N)=O` (H-KKLLKKLLKKLLKL-NH2), the IC50 in [1] was determined as 12.1 µM; in the data set on MCF7 it was 12.5 µM; in the data set on HeLa, 7.85 µM; in the data set on A549, 8.71 µM. Moreover, the IC50 at 1 h in [2] was 8.91 µM. Besides, the selectivity ratio in data set [3] was 10.3; in [4] it was 6.5; in data set [5], 9.31; in [6], 6.72.
Take `CC(C)C[C@H](NC(=O)[C@H](CC(C)C)NC(=O)[C@H](CCCCN)NC(=O)[C@H](CCCCN)NC(=O)[C@H](CC(C)C)NC(=O)[C@H](CC(C)C)NC(=O)[C@H](CCCCN)NC(=O)[C@H](CCCCN)NC(=O)[C@H](CC(C)C)NC(=O)[C@H](CC(C)C)NC(=O)[C@@H](N)CCCCN)C(=O)N[C@@H](CCCCN)C(N)=O` (H-KLLKKLLKKLLK-NH2): the IC50 was 47.2 µM in data set [1], 89.7 µM with MCF7, 22.2 µM in the data set with HeLa and 131 µM with A549. In addition, the IC50 at 1 h in [2] worked out at 82.6 µM. The selectivity ratio in [3] worked out at 18.9; in data set [4] it was 4.66; in data set [5] it was 3.19; in [6] it was 8.86.
As to `CC(C)C[C@H](NC(=O)[C@H](CC(C)C)NC(=O)[C@H](CCCCN)NC(=O)[C@H](CCCCN)NC(=O)[C@H](CC(C)C)NC(=O)[C@H](CC(C)C)NC(=O)[C@H](CCCCN)NC(=O)[C@H](CCCCN)NC(=O)[C@H](CC(C)C)NC(=O)[C@H](CC(C)C)NC(=O)[C@H](CCCCN)NC(=O)[C@H](CCCCN)NC(=O)[C@H](CC(C)C)NC(=O)[C@H](CC(C)C)NC(=O)[C@@H](N)CCCCN)C(=O)N[C@@H](CCCCN)C(N)=O` (H-KLLKKLLKKLLKKLLK-NH2), the IC50 was found to be 6.79 µM in data set [1], 7.46 µM in the data set on MCF7, 3.94 µM in the data set on HeLa and 3.93 µM with A549. Further, the IC50 at 1 h in data set [2] turned out to be 7.36 µM. Also, the selectivity ratio in [3] is 2.31; in data set [4], 1.22; in data set [5] it was 2.31; in data set [6] it was 1.34.
Consider `CC(C)C[C@H](NC(=O)[C@H](CCCCN)NC(=O)[C@H](CC(C)C)NC(=O)[C@H](CC(C)C)NC(=O)[C@H](CCCCN)NC(=O)[C@H](CCCCN)NC(=O)[C@H](CC(C)C)NC(=O)[C@H](CC(C)C)NC(=O)[C@H](CCCCN)NC(=O)[C@H](CCCCN)NC(=O)[C@H](CC(C)C)NC(=O)[C@H](CC(C)C)NC(=O)[C@H](CCCCN)NC(=O)[C@H](CCCCN)NC(=O)[C@H](CC(C)C)NC(=O)[C@H](CC(C)C)NC(=O)[C@@H](N)CCCCN)C(N)=O` (H-KLLKKLLKKLLKKLLKL-NH2), for which the IC50 in [1] was determined as 7.88 µM; in the data set with MCF7, 6.19 µM; in the data set with HeLa, 2.68 µM; with A549, 4.06 µM. The IC50 at 1 h in data set [2] stood at 5.35 µM. The selectivity ratio in [3] was 1.2; in data set [4], 0.517; in data set [5], 0.787; in [6] it was 0.406.
`CC(C)C[C@H](NC(=O)[C@H](CCCCN)NC(=O)[C@H](CC(C)C)NC(=O)[C@H](CC(C)C)NC(=O)[C@H](CCCCN)NC(=O)[C@H](CCCCN)NC(=O)[C@H](CC(C)C)NC(=O)[C@H](CC(C)C)NC(=O)[C@H](CCCCN)NC(=O)[C@H](CCCCN)NC(=O)[C@H](CC(C)C)NC(=O)[C@H](CC(C)C)NC(=O)[C@@H](N)CCCCN)C(N)=O` (H-KLLKKLLKKLLKL-NH2): the IC50 was determined as 11.1 µM in data set [1], 10.5 µM in the data set with MCF7, 8.14 µM in the data set on HeLa and 9.08 µM in the data set on A549. In addition, the half-maximal inhibitory concentration (IC50) at 1 h in data set [2] is 9.65 µM. The selectivity ratio in data set [3] came out at 6.79; in [4] it was 5.27; in data set [5], 6.09; in [6], 4.98.
`CC(C)C[C@H](NC(=O)[C@H](CC(C)C)NC(=O)[C@H](CCCCN)NC(=O)[C@H](CCCCN)NC(=O)[C@H](CC(C)C)NC(=O)[C@H](CC(C)C)NC(=O)[C@H](CCCCN)NC(=O)[C@H](CCCCN)NC(=O)[C@H](CC(C)C)NC(=O)[C@H](CC(C)C)NC(=O)[C@H](CCCCN)NC(=O)[C@H](CC(C)C)NC(=O)[C@H](CC(C)C)NC(=O)[C@@H](N)CCCCN)C(N)=O` (H-KLLKLLKKLLKKLL-NH2): the IC50 was 34.3 µM in data set [1], 58.4 µM in the data set with MCF7, 11.9 µM in the data set on HeLa and 15.4 µM in the data set on A549. In addition, the IC50 at 1 h in data set [2] is 28.1 µM. The selectivity ratio was determined as 0.629 in data set [3], 0.129 in data set [4], 0.486 in data set [5] and 0.219 in data set [6].
For `CC(C)C[C@H](NC(=O)[C@H](CC(C)C)NC(=O)[C@H](CCCCN)NC(=O)[C@H](CCCCN)NC(=O)[C@H](CC(C)C)NC(=O)[C@H](CC(C)C)NC(=O)[C@H](CCCCN)NC(=O)[C@H](CCCCN)NC(=O)[C@H](CC(C)C)NC(=O)[C@H](CC(C)C)NC(=O)[C@H](CCCCN)NC(=O)[C@H](CCCCN)NC(=O)[C@H](CCC(=O)O)NC(=O)[C@@H](N)CC(C)C)C(N)=O` (H-LEKKLLKKLLKKLL-NH2), the IC50 in [1] turned out to be 46.4 µM; in the data set with MCF7, 51.2 µM; in the data set on HeLa, 25.8 µM; in the data set with A549, 49.4 µM. Also, the IC50 at 1 h in data set [2] amounted to 59.2 µM. Further, the selectivity ratio turned out to be 4.62 in [3], 2.33 in data set [4], 2.42 in data set [5] and 2.58 in data set [6].
